This is an account of results in US20260115162A1, “COMPOSITION OR ASSOCIATION OF COMPOUNDS PREFERABLY FOR USE IN THE TREATMENT OF NERVOUS DISEASES IN PARTICULAR NEURODEGENERATIVE DISEASES, METHOD FOR THE PREPARATION OF SUCH COMPOSITION OR ASSOCIATION OF COMPOUNDS AND USES THEREOF” (PHARMACEUTICA SAN MARCO S.R.L., priority 2022, published 2026).

Structures are written as SMILES. Several values for one entry are separate records, joined by “and”; a condition that tells them apart may be missing. Equal entries are not always repeated. Where two headings read alike, the source gives them in different places.

Data set [1] in a line: Blood concentration of βBA by oral-sublingual vs oral-gastro-intestinal route (FIG. 1). The data set is classed as in vivo, humans. The method, then:
FIG. 1. Blood Concentration of βBA Administered by Oral-Sublingual Route Vs. Oral-Gastro-Intestinal Route. • ? 43 a, 58 kg BW • βBA administered both via os and sublingual: 10 mg=172.4 ng/g. • Maximum blood concentration via sublingual route: 95 ng/ml. • Maximum blood concentration via os: 52 ng/ml. • Δos/plasma: 1.82. • Note • 1. […] The explanation is that βBA is an excellent vasodilator, probably through the release of NO nitric oxide [Wang M et al. 2015], synergistic with the other compounds of the composition or association object of the present invention. • 2. […] Note that with the present experiment, the Δos/plasma ratio of 1.82 was the same as that found by Sterk V et al. 2004 (Table 1).

In data set [2] the test system is synaptophysin. Nature of the data set: Synaptophysin in PFC and HIPP of mice treated with Aβ icv, Western blotting (FIG. 11). The settings on record: after 7 days. The data set is classed as in vivo. The method, then: The βCP, FE, βBA and HA4 influence on prefrontal and hippocampal synaptic plasticity was evaluated using anti-PSD-95, anti-synaptophysin, anti-CaMKII antibodies.
(§1) The Aβ1-42, obtained from Tocris (Bristol, UK), was dissolved in sterile double-distilled pyrogenic-free water, as vehicle, to obtain a final concentration 4 μM [Colaianna M et al. 2010]. Mice were anesthetized with a solution (0.85 in ml/kg, i.p.), containing ketamine (Sigma Aldrich, Milan, Italy, 100 mg/10 ml), xylazine (Sigma Aldrich, Milan, Italy, 100 mg/10 ml) and acepromazine (prequillant, ATI Azienda Terapeutica Veterinaria Srl, 10 mg/10 ml) dissolved in saline solution. […] At the time of dissection, the correct needle track was assessed. […]
The total amount of proteins was measured in homogenates by using Pierce BCA Assay (Thermo Fisher Scientific, Cleveland, OH, USA). […] After HRP-conjugated specific antibody incubation, ECL reagent (Bio-Rad Laboratories Inc., Segrate (MI), Italy) was added to the immune complex and chemiluminescence was detected by ChemiDoc MP system (Bio-Rad Laboratories Inc., Segrate (MI), Italy). Optical densities of the bands were measured using Image J software (http://rsb.info.nih.gov/ij/ accessed on 15 Mar. 2021) and normalized against bands relative to -actin (1:5,000, Abcam, Cambridge, UK).
For orientation: Immunoblotting shows a protein as a band on a membrane.

Data set [3] is described as follows: Plasma and brain levels of βBA and AKBA via os in mice (Gerbeth K et al. 2013). The format is in vivo. The source says: βBA appears not to undergo blood-brain barrier. According to the data of Gerbeth K et al. 2013, brain levels of AKBA were very low, resulting 0.4 per AKBA in the brain/plasma ratio (but 0.81 according to Weber C C et al. 2006). In contrast, the § BA concentration in the brain was even higher than that found in the blood with 32% increase (See Table 1).

The test system of data set [4] is mice treated with Aβ icv. In words: Splash test in SHAM mice and mice treated with Aβ icv (FIG. 4). The settings on record: after 7 days, HA4 200 μg, βCP 50 μg, βBA 100 μg, FE 50 μg sublingually. The data set is classed as in vivo. The protocol:
as §1
Ten μl of the solution (or vehicle alone) were administered sublingually to mice. Brain βCP, FE e βBA were quantified in a separate subset of mice at 5, 15 and 30 min after their administration.
All behavioral experiments were conducted at 5 or 30 min after sublingual administrations of βBA or vehicle in mice treated with SHAM or AP. Based on the observed behavioral results, neurochemical and biochemical quantifications were performed 30 min after administration of βCP, FE, and βBA or vehicle in SHAM- or Aβ-treated mice.
Splash test. […] The test was videotaped and later an observer, blind to the trial, scored for latency to the first grooming event and duration of self-care behavior during the period of the test (5 min).

The conditions of data set [5]: healthy volunteers, via os, cited from earlier work.

Consider `C[C@H]1[C@H](C)CC[C@]2(C)CC[C@]3(C)C(=CC[C@@H]4[C@@]5(C)CC[C@@H](O)[C@](C)(C(=O)O)[C@@H]5CC[C@]43C)[C@H]12` [βBA, β-boswellic acid], for which, in data set [1] (one person, 58 kg BW, 10 mg=172.4 ng/g, sublingual), the “Maximum blood concentration via sublingual route” value is 95 ng/mL. Also, the “Maximum blood concentration via os” value in data set [1] (one person, 58 kg BW, 10 mg=172.4 ng/g, via os) turned out to be 52 ng/mL. Further, the Δos/plasma was 1.81 and 1.82 in data set [1] (sublingual administration); 2.97 in data set [1] (via os administration); 39 in data set [3]. In addition, the “reduction in blood concentration with respect to the administered dose” value in data set [1] (via os) is 67% and 70%. In addition, the synaptophysin tissue concentration result in data set [2] is given as “remove Ap-induced alterations”. This molecule also came in with a Δos/brain in data set [3] of 26. In data set [3], this molecule gave a Δplasma/brain of 0.68. The “increase of concentration in the brain over that in the blood” value in data set [3] (Table 1) came to 32%. The “Splash test latency time (antidepressant effect)” value in data set [4] is recorded as “antidepressant effect”. Also, the results for the “concentration in the plasma” value in data set [5] (fasted conditions) and in data set [5] (hyperlipidic fed conditions) were 188.2 fasted ng/g o ng/ml and 1,120 hyperlipidic ng/g o ng/ml, respectively.
